Biological target: AKT1 (PKBα) (Homo sapiens (Human), UniProt P31749)
Conditions: read-out: In vitro PKBα Mean IC50; AKT1/PKBα active enzyme; values marked * tested once only

Chain of AKT1 (PKBα) (P31749 whole entry): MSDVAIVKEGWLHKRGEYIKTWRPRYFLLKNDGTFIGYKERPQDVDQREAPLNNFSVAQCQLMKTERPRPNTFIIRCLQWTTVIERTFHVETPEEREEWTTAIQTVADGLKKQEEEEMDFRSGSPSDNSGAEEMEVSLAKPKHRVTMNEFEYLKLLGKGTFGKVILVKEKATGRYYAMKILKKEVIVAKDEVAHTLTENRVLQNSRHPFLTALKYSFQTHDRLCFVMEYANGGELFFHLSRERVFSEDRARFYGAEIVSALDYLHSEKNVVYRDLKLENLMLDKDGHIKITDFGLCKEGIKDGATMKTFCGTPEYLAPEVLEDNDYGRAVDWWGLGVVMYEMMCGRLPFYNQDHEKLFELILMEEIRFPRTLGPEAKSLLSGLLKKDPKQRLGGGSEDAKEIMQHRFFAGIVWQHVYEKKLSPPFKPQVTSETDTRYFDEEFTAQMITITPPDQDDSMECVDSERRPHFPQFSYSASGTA

IC50: 50 nM
SMILES: C[C@H](NC(=O)C1(N)CCN(c2ncnc3[nH]ccc23)CC1)c1ccc(C#N)cc1 [Example 39, 4-amino-N-[(1S)-1-(4-cyanophenyl)ethyl]-1-(7H-pyrrolo[2,3-d]pyrimidin-4-yl)piperidine-4-carboxamide]

Reference: patent US10654855B2 (priority 2007, dated 2020)
